18 compounds from patent publication US10219516B2, “Molecules having pesticidal utility, and intermediates, compositions, and processes, related thereto” (priority 2015, dated 2019) can be followed below.

Holding throughout (assay type): in vivo
For experiment [1], the system named is Beet Armyworm (Spodoptera exigua, LAPHEG). The experiment is described as follows: Bioassay on Beet Armyworm (BAW), 128-well diet tray assay. A digest of the protocol: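 Diet in each of eight wells received 50 μg/cm^2 of test molecule (90:10 acetone-water, dried), then one to five second-instar larvae were added. Mortality (%) was scored after five to seven days at 25° C. under 14:10 light-dark and averaged across the wells.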

Experiment [2] has as its system Cabbage Looper (Trichoplusia ni, TRIPNI). The experiment is described as follows: Bioassay on Cabbage Looper (CL), 128-well diet tray assay. As to conditions: Trichoplusia ni. A digest of the protocol:
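Percent mortality, averaged across eight replicate wells, was scored after five to seven days at 25° C. under a 14:10 light-dark cycle. Each well held one to five second instar larvae on artificial diet treated at 50 μg/cm^2 with compound from 90:10 acetone-water, allowed to dry before infestation.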

The test system of experiment [3] is Yellow Fever Mosquito (Aedes aegypti, AEDSAE). Nature of the experiment: Bioassay on Yellow Fever Mosquito (YFM), 96-well plate larval assay. As to conditions: for YFM (Biological Results, rating): Species YFM (Yellow Fever Mosquito); for YFM rating: Yellow Fever Mosquito, 96-well plate larval assay. On the procedure:
Certain molecules disclosed in this document were tested against YFM using procedures described in the following paragraph. In the reporting of the results, the “GPA & YFM Rating Table” was used (See Table Section).
Master plates containing 400 μg of a molecule dissolved in 100 μL of dimethyl sulfoxide (DMSO) (equivalent to a 4000 ppm solution) are used. A master plate of assembled molecules contains 15 μL per well. To this plate, 135 μL of a 90:10 water/acetone mixture is added to each well. A robot is programmed to dispense 15 μL aspirations from the master plate into an empty 96-well shallow plate (“daughter” plate). There are 6 reps (“daughter” plates) created per master. The created “daughter” plates are then immediately infested with YFM larvae.
The day before plates are to be treated, mosquito eggs are placed in Millipore water containing liver powder to begin hatching (4 g. into 400 mL). After the “daughter” plates are created using the robot, they are infested with 220 μL of the liver powder/larval mosquito mixture (about 1 day-old larvae). After plates are infested with mosquito larvae, a non-evaporative lid is used to cover the plate to reduce drying. Plates are held at room temperature for 3 days prior to grading. After 3 days, each well is observed and scored based on mortality. The results are indicated in the table entitled “Table ABC: Biological Results” (See Table Section).

Where [4] appears, read: Species BAW (Beet Armyworm), read-out: BAW (Biological Results, rating).
The mark [5] stands for this setting: Species CL (Cabbage Looper), read-out: CL (Biological Results, rating).
The mark [6] stands for this setting: Beet Armyworm, 128-well diet tray assay, read-out: BAW rating.
Where [7] appears, read: Cabbage Looper, 128-well diet tray assay, read-out: CL rating.

Read-outs that look alike come from different tables or passages of the source.

In the case of `O=C(Nc1ccc(F)cc1F)c1cc(NC(=O)[C@H]2[C@H](c3cc(Cl)c(Cl)c(Cl)c3)C2(Cl)Cl)ccc1F` (relative stereo) [F75, trans-5-(2,2-Dichloro-3-(3,4,5-trichlorophenyl)cyclopropane-1-carboxamido)-N-(2,4-difluorophenyl)-2-fluorobenzamide], the pest or weed control at 50 µg/cm2 in experiment [1] (setting [4]) and in experiment [2] (setting [5]) was 50 to 100% throughout. The “YFM (Biological Results, rating)” value in experiment [3] is recorded as “A (80-100)”.

Regarding `C#CCN(C(=O)c1cc(NC(=O)[C@H]2[C@H](c3cc(Cl)cc(Cl)c3)C2(Cl)Cl)ccc1Cl)c1ccc(F)cc1` (relative stereo) [F413, trans-2-Chloro-5-(2,2-dichloro-3-(3,5-dichlorophenyl)cyclopropane-1-carboxamido)-N-(4-fluorophenyl)-N-(prop-2-yn-1-yl)benzamide], the pest or weed control at 50 µg/cm2 in experiment [1] (setting [6]) and in experiment [2] (setting [7]) was 50 to 100% each time. For the same compound, in experiment [3], the YFM rating result is recorded as “A (80-100)”.

As for `O=C(Nc1ccc(F)cc1)c1cc(NC(=O)[C@H]2[C@H](c3ccc(Cl)c(Br)c3)C2(Cl)Cl)ccc1Cl` (relative stereo) [F330, 5-(trans-3-(3-Bromo-4-chlorophenyl)-2,2-dichlorocyclopropane-1-carboxamido)-2-chloro-N-(4-fluorophenyl)benzamide], the pest or weed control at 50 µg/cm2 in experiment [1] (setting [4]) and in experiment [2] (setting [5]) was 50 to 100% in each case. Moreover, the “YFM (Biological Results, rating)” value in experiment [3] is reported as “A (80-100)”.

Take `O=C(Nc1ccc(F)cc1)c1cc(NC(=O)[C@H]2[C@H](c3ccc(Cl)c(Cl)c3)C2(Cl)Cl)ccc1Cl` [F209, 2-Chloro-5-((1R,3R)-2,2-dichloro-3-(3,4-dichlorophenyl)cyclopropane-1-carboxamido)-N-(4-fluorophenyl)benzamide]: the pest or weed control at 50 µg/cm2 in experiment [1] (setting [4]) and in experiment [2] (setting [5]) was 50 to 100% each time. Also, the “YFM (Biological Results, rating)” value in experiment [3] is “A (80-100)”.

Consider `O=C(Nc1ccc(Cl)c(F)c1)c1cc(NC(=O)C2C(c3cc(Cl)cc(Cl)c3)C2(Cl)Cl)ccc1Cl` (stereo not drawn) [PF123, 2-Chloro-N-(4-chloro-3-fluorophenyl)-5-(trans)-2,2-dichloro-3-(3,5-dichlorophenyl)cyclopropane-1-carboxamido)benzamide], for which the pest or weed control at 50 µg/cm2 in experiment [1] (setting [6]) and in experiment [2] (setting [7]) was 50 to 100% in each case. In addition, the YFM rating entry in experiment [3] is recorded as “A (80-100)”.

Regarding `O=C(Nc1cnc(F)c(Br)c1)c1cc(NC(=O)[C@H]2[C@H](c3cc(Cl)cc(Cl)c3)C2(Cl)Cl)ccc1Cl` (relative stereo) [F395, N-(5-Bromo-6-fluoropyridin-3-yl)-2-chloro-5-(trans-2,2-dichloro-3-(3,5-dichlorophenyl)cyclopropane-1-carboxamido)benzamide], the pest or weed control at 50 µg/cm2 in experiment [1] (setting [6]) and in experiment [2] (setting [7]) was 50 to 100% in each case. Besides, in experiment [3], the YFM rating entry is recorded as “A (80-100)”.

As to `O=C(Nc1ncc(F)cc1F)c1cc(NC(=O)[C@H]2[C@H](c3ccc(Cl)c(Cl)c3)C2(Cl)Cl)ccc1Cl` [F310, 2-Chloro-5-((1R,3R)-2,2-dichloro-3-(3,4-dichlorophenyl)cyclopropane-1-carboxamido)-N-(3,5-difluoropyridin-2-yl)benzamide], the pest or weed control at 50 µg/cm2 in experiment [1] (setting [4]) and in experiment [2] (setting [5]) was 50 to 100% throughout. Moreover, in experiment [3], the “YFM (Biological Results, rating)” value is “A (80-100)”.

As for `N#Cc1ccc(NC(=O)c2cc(NC(=O)[C@H]3[C@H](c4cc(Cl)cc(Cl)c4)C3(Cl)Cl)ccc2Cl)c(C#N)c1` (relative stereo) [F287, trans-2-Chloro-5-(2,2-dichloro-3-(3,5-dichlorophenyl)cyclopropane-1-carboxamido)-N-(2,4-dicyanophenyl)benzamide], the pest or weed control at 50 µg/cm2 in experiment [1] (setting [4]) and in experiment [2] (setting [5]) was 50 to 100% throughout. Also, the “YFM (Biological Results, rating)” value in experiment [3] is on record as “A (80-100)”.

On to `Nc1c(F)cnc(NC(=O)c2cc(NC(=O)[C@H]3[C@H](c4cc(Cl)cc(Cl)c4)C3(Cl)Cl)ccc2Cl)c1F` [F370, N-(4-Amino-3,5-difluoropyridin-2-yl)-2-chloro-5-((1R,3R)-2,2-dichloro-3-(3,5-dichlorophenyl)cyclopropane-1-carboxamido)benzamide], for which the pest or weed control at 50 µg/cm2 in experiment [1] (setting [4]) and in experiment [2] (setting [5]) was 50 to 100% each time. Moreover, in experiment [3], the “YFM (Biological Results, rating)” value is “A (80-100)”.

As for `O=C(Nc1ccc2cccnc2c1)c1cc(NC(=O)C2C(c3cc(Cl)cc(Cl)c3)C2(Cl)Cl)ccc1Cl` (stereo not drawn) [F436, 2-Chloro-5-(trans)-2,2-dichloro-3-(3,5-dichlorophenyl)cyclopropane-1-carboxamido)-N-(quinolin-7-yl)benzamide], the pest or weed control at 50 µg/cm2 in experiment [1] (setting [6]) and in experiment [2] (setting [7]) was 50 to 100% throughout. For the same compound, in experiment [3], the YFM rating result is on record as “B (More than 0-Less than 80)”.

For `O=C(Nc1ccc2scnc2c1)c1cc(NC(=O)[C@H]2[C@H](c3cc(Cl)cc(Cl)c3)C2(Cl)Cl)ccc1Cl` (relative stereo) [F482, trans-N-(Benzo[d]thiazol-5-yl)-2-chloro-5-(2,2-dichloro-3-(3,5-dichlorophenyl)cyclopropane-1-carboxamido)benzamide], the pest or weed control at 50 µg/cm2 in experiment [1] (setting [6]) and in experiment [2] (setting [7]) was 50 to 100% each time. For the same compound, the YFM rating entry in experiment [3] was “A (80-100)”.

As for `Nc1cc(F)c(NC(=O)c2cc(NC(=O)[C@H]3[C@H](c4ccc(Cl)c(Cl)c4)C3(Cl)Cl)ccc2Cl)cc1F` [F569, trans-N-(4-Amino-2,5-difluorophenyl)-2-chloro-5-((1R,3R)-2,2-dichloro-3-(3,4-dichlorophenyl)cyclopropane-1-carboxamido)benzamide], the pest or weed control at 50 µg/cm2 in experiment [1] (setting [6]) and in experiment [2] (setting [7]) was 50 to 100% throughout. In addition, in experiment [3], the YFM rating entry is “A (80-100)”.

On to `O=C(Nc1ccccc1)c1cc(NC(=O)[C@H]2[C@H](c3ccc(F)c(Cl)c3)C2(Cl)Cl)ccc1Cl` (relative stereo) [F259, trans-2-Chloro-5-(2,2-dichloro-3-(3-chloro-4-fluorophenyl)cyclopropane-1-carboxamido)-N-phenylbenzamide], for which the pest or weed control at 50 µg/cm2 in experiment [1] (setting [4]) and in experiment [2] (setting [5]) was 50 to 100% in each case. In experiment [3], the “YFM (Biological Results, rating)” value was “A (80-100)”.

With `O=C(Nc1ccc(-n2cnnc2)cc1)c1cc(NC(=O)[C@H]2[C@H](c3cc(Cl)cc(Cl)c3)C2(Cl)Cl)ccc1Cl` (relative stereo) [PF102, trans-N-(4-(4H-1,2,4-Triazol-4-yl)phenyl)-2-chloro-5-(2,2-dichloro-3-(3,5-dichlorophenyl)cyclopropane-1-carboxamido)benzamide], the pest or weed control at 50 µg/cm2 in experiment [1] (setting [6]) and in experiment [2] (setting [7]) was 50 to 100% throughout. In experiment [3], the YFM rating entry is listed as “A (80-100)”.

For the compound `O=C(Nc1ccc(F)cc1F)c1cc(NC(=O)[C@H]2[C@H](c3ccc(C(F)F)c(F)c3)C2(Cl)Cl)ccc1Cl` (relative stereo) [F563, 2-Chloro-5-(trans-2,2-dichloro-3-(4-(difluoromethyl)-3-fluorophenyl)cyclopropane-1-carboxamido)-N-(2,4-difluorophenyl)benzamide], the pest or weed control at 50 µg/cm2 in experiment [1] (setting [6]) and in experiment [2] (setting [7]) was 50 to 100% each time. Besides, the YFM rating entry in experiment [3] is listed as “A (80-100)”.

Consider `Nc1cc(F)cc(NC(=O)c2cc(NC(=O)[C@H]3[C@H](c4cc(Cl)c(Cl)c(Cl)c4)C3(Cl)Cl)ccc2Cl)c1` [F432, N-(3-Amino-5-fluorophenyl)-2-chloro-5-((1R,3R)-2,2-dichloro-3-(3,4,5-trichlorophenyl)cyclopropane-1-carboxamido)benzamide], for which the pest or weed control at 50 µg/cm2 in experiment [1] (setting [6]) and in experiment [2] (setting [7]) was 50 to 100% throughout. The YFM rating result in experiment [3] is “A (80-100)”.

On to `O=C(Nc1ccc(NC(=O)C2CC2)cc1)c1cc(NC(=O)[C@H]2[C@H](c3cc(Cl)cc(Cl)c3)C2(Cl)Cl)ccc1Cl` (relative stereo) [PF107, trans-2-Chloro-N-(4-(cyclopropane-1-carboxamido)phenyl)-5-(2,2-dichloro-3-(3,5-dichlorophenyl)cyclopropane-1-carboxamido)benzamide], for which the pest or weed control at 50 µg/cm2 in experiment [1] (setting [6]) and in experiment [2] (setting [7]) was 50 to 100% each time. For the same compound, in experiment [3], the YFM rating result is “A (80-100)”.

Regarding `C=C(c1ccc(NC(=O)c2cc(NC(=O)[C@H]3[C@H](c4cc(Cl)cc(Cl)c4)C3(Cl)Cl)ccc2Cl)c(C)c1)C(F)(F)F` (relative stereo) [F258, 2-Chloro-5-(trans)-(2,2-dichloro-3-(3,5-dichlorophenyl)cyclopropane-1-carboxamido)-N-(2-methyl-4-(3,3,3-trifluoroprop-1-en-2-yl)phenyl)benzamide], the pest or weed control at 50 µg/cm2 in experiment [1] (setting [4]) and in experiment [2] (setting [5]) was 50 to 100% each time. Further, in experiment [3], the “YFM (Biological Results, rating)” value was “B (More than 0-Less than 80)”.
